Measured values reported in US20240180881A1, “METHODS FOR DECREASING RESISTANCE TO CHEMOTHERAPY” (National Institute of Immunology, priority 2022, published 2024).
Counter-ions that a name gives are not always drawn. Like-named read-outs stand apart in the source and are kept apart here. Blank lines part the entries; values can stand above or below the molecule they belong to.

What was measured:
[1] = target: T1, BLM-RAD54 interaction (BLM F2 and N-RAD54 F1) (Homo sapiens, UniProt Q92698); test: Renilla luciferase-based protein complementation assay (PCA); assay type: cell-based
T1 construct: expressed in transfected cells; host or cells: HEK293T
T1 sequence (Q92698 1-212): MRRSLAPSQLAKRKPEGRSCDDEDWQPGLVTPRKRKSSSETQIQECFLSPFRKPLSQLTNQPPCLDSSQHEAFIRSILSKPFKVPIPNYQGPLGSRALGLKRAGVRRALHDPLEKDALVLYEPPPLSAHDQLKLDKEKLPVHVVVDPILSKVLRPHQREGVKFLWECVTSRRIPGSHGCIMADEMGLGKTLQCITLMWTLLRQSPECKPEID
Experimental: Specifically, N-RAD54-F1, C-RAD54-F1, BLM-F1 and BLM-F2 were transfected in HEK293T. Forty-eight hours post-transfection, Renilla luciferase-based PCA were carried out with the indicated combination of the expressed proteins. The experiment was repeated three times. Mean±S.D.
Using the Renilla luciferase-based protein complementation assay described earlier, 1280 FDA/EMA approved small molecules present in Prestwick chemical library were screened for their ability to disrupt BLM-RAD54 interaction. Each of the small molecules was incubated with HEK293T cells expressing BLM-F2 and N-RAD54-F1. Compared to cells expressing only BLM-F2 and N-RAD54-F1, the decrease in Renilla luciferase intensity in presence of each small molecule was monitored. Percentage disruption of the interaction between BLM F2 and N-RAD54 F1 was plotted in form of heatmap. The disruption of the BLM-RAD54 interaction was determined by a decrease in the Renilla luciferase activity as compared to control untreated cells.
The percentage disruption of the interaction between BLM F2 and N-RAD54 F1 was plotted as a non-linear regression line. The data was from three independent experiments.
Renilla Luciferase (Rlu) based Protein complementation assay was carried out as described in (Stefan et al., 2007). For preliminary screening of the Prestwick Chemical Library (containing 1280 FDA/EMA approved small molecules), HEK293T cells were seeded in the 6-well plates a day prior to the transfection. Next day the cells were transfected by 2 μg each of pcDNA3.1 N-RAD54 F1, pcDNA3.1 C-RAD54 F1, pcDNA3.1 BLM F1, pcDNA3.1 BLM F2 plasmids (alone or in different combinations) using Lipofectamine 2000 (according to the manufacturer's protocol). 36 hours post-transfection, approximately […] cells were seeded in a 96-well plate and incubated at 37° C. for 2 hour with or without 10 μM of the 1280 small molecules present in the library. 10 μM of Coenleterazine h was added into each well and Rluc activity was monitored for the first 10 seconds in Varioskan Microplate Reader (Thermo Fisher Scientific). The validation screen was performed with 17 small molecules at 100 μM, 10 μM, 1 μM, 100 nM, 10 nM and 1 nM concentrations. The percentage reduction in the protein-protein interaction was then calculated as compared to the control wells (without any small molecule).

HCT116 IC60 CPTR cells = test: MTT assay, CPT gradient with or without disruptor; assay type: cell-based; conditions: Homo sapiens, HCT-116, CPT gradient alone, 72 hours, read-out: EC50 (μM), HCT116 WT CPT^R
Experimental: (§1) The three resistant lines and their wildtype counterpart HCT116 were exposed to a gradient of CPT, CDDP or 1-OHP.
(§2) Concentrations of CPT used: 0.140 nM, 20 nM, 50 nM, 1000 nM. Concentration of 1-OHP: 0.14 μM, 2 μM, 4 μM, 6 μM, 8 μM. Concentrations of CDDP used: 0.140 μM, 2 μM, 5 μM, 10 μM. The percentage of viable cells were determined by MTT assays (FIG. 12A-12C). The data in FIG. 12A and FIG. 12C is from three independent experiments and the data in FIG. 12B is from nine independent experiments. […] The levels of MRP2, MRP3, MRP5, MXR were quantitated from three independent experiments. […] Specifically, HCT116 IC60 CPTR cells were transfected with the HR substrate for 72 hours and the levels of HR was determined (FIG. 6A). The data is from three independent experiments. […] The number of soft agar colonies in each condition were counted. The data is from three independent experiments.
To generate camptothecin and cisplatin resistant cells (named as HCT116 IC60 CPT^R, HCT116 IC60 CDDP^R respectively), HCT116 wild type were seeded in a 10 cm dish to a confluency of 80%. The IC20 concentrations of cisplatin (3.38 μM) and camptothecin (12.6 nM) was added for 2 hours and 6 hours, respectively. […] Resistant index was calculated using the following formula: Resistant index=IC60 of the resistant cells/IC60 of the parental cells. […]

HCT116 WT cells = test: MTT assay, chemotherapeutic drug gradient with or without disruptor; assay type: cell-based
Experimental: as §1, §2
To generate camptothecin and cisplatin resistant cells (named as HCT116 IC60 CPT^R, HCT116 IC60 CDDP^R respectively), HCT116 wild type were seeded in a 10 cm dish to a confluency of 80%. The IC20 concentrations of cisplatin (3.38 μM) and camptothecin (12.6 nM) was added for 2 hours and 6 hours, respectively. Post treatment, the cells were washed twice with 1×PBS and fresh media was added. After every 48 hours, the media was changed and IC20 concentration of the drugs were added only if the confluency of cells was at least 80%. […] Resistant index was calculated using the following formula: Resistant index=IC60 of the resistant cells/IC60 of the parental cells.
Cells were seeded in a 96-well plate overnight. Next day, the culturing media was replaced with Optimem media, followed by incubation with BLM_CPP or SCM_CPP for 1 hr. The final concentrations of the peptides were 450 nM for cisplatin (CDDP) and 180 nM (for all other drugs). […] Post treatment, the cells were washed with 1×PBS and fresh media was added. After 72 hours, MTT assay was carried out to determine the percentage cell viability of the cells with respect to the untreated cells.

RAD54 ATPase activity = target: T2, RAD54 ATPase activity (Homo sapiens, UniProt Q92698); test: ATPase assay; assay type: biochemical; conditions: peptide gradient 180 nM, 360 nM, 540 nM
T2 construct: made in house; host or cells: E. coli BL-21 DE3
T2 sequence (Q92698 1-747): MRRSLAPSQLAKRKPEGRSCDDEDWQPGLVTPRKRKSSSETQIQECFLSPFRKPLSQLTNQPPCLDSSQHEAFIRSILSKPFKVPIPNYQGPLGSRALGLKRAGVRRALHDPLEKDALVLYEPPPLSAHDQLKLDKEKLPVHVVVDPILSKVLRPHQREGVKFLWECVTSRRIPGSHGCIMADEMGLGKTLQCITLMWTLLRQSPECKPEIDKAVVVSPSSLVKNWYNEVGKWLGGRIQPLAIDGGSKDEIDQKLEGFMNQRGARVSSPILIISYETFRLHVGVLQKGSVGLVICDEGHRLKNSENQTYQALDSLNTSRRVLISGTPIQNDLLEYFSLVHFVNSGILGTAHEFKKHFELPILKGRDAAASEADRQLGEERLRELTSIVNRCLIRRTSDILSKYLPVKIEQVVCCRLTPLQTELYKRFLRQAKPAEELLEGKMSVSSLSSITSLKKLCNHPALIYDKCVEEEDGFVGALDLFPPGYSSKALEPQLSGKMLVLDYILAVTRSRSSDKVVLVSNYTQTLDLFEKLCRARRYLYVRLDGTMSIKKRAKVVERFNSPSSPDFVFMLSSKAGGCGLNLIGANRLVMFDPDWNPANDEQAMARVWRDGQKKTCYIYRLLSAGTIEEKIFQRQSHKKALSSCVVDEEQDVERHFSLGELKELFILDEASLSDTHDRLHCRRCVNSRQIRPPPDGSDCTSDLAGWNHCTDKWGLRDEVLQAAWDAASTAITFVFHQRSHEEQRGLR
Experimental: The data is from three independent experiments. Mean±S.D.
(§3) The presence of the disruptors also led to a decrease in the ATP binding to RAD54.
Assay for RAD54 ATPase activity was carried out as per the previously published protocol (Srivastava et al., 2009). His-RAD54 (120 nM) was incubated with the GST-BLM (1-212) or BLM_peptide or SCM_peptide (180 nM). […] 1 μl of the sample was spotted on the polyethyleneimine-coated TLC plate, resolved in 1M Formic Acid and 0.3M LiCl. The products of ATP hydrolysis were then visualized by Phosphoimager scans taken in Typhoon™ laser-scanner platform (Cytiva) and quantitated using the inbuilt software.

His-RAD54 WT = target: T3, His-RAD54 WT (Homo sapiens, UniProt Q92698); test: Tryptophan fluorescence assay; assay type: binding; conditions: increasing amount of peptide
T3 construct: made in house; host or cells: E. coli BL-21 DE3
T3 sequence (Q92698 1-747): T2 sequence (Q92698 1-747)
Experimental: To determine how BLM peptide affects ATP binding and hydrolysis, tryptophan fluorescence assays were carried out using full-length recombinant RAD54 in presence of either BLM_peptide or SCM_peptide (FIG. 2H). Tryptophan fluorescence assays were carried out with RAD54 WT alone or RAD54 WT in presence of the indicated concentrations of either BLM_peptide (upper panel) or SCM_peptide (lower panel). The experiment was repeated three times and one representative experiment has been shown.
RAD54 fluorescence was measured in a fluorometer.
Tryptophan fluorescence measurements were performed on a Fluoromax Spectrofluorimeter (Horiba-Jobin Yvon Fluoromax 4). Recombinant His-RAD54 (500 nM) was excited at 280 nm and the emission intensity monitored at regular intervals from 295 nm to at least 450 nm.

[2] = target: T4, RAD54 chromatin remodeling activity (Homo sapiens, UniProt Q92698); test: Restriction enzyme accessibility (REA) assay on chromatinized G5E4 array; assay type: biochemical; conditions: 180 nM peptide, +ATP
T4 construct: GST RAD54 (1-747) (WT), GST BLM (1-1417) (WT), His RAD54 (1-747) (WT); made in house; host or cells: E. coli BL-21 DE3
T4 sequence (Q92698 1-747): T2 sequence (Q92698 1-747)
Source text: (§4) The data is from three independent experiments.
as §4

RAD54 = target: T5, RAD54 (Homo sapiens, UniProt Q92698); test: ATP binding assay; assay type: biochemical; conditions: 180 nM peptide
T5 construct: GST RAD54 (1-747) (WT); made in house; host or cells: E. coli BL-21 DE3
T5 sequence (Q92698 1-747): T2 sequence (Q92698 1-747)
Experimental: The quantitation of the ATP binding assay was carried out using RAD54 WT, RAD54 WT+BLM_peptide, and RAD54 WT+SCM_peptide. The data is from three independent experiments. Mean±S.D.
as §3
A 20 μl reaction was set up with 120 nM of GST-RAD54 and 180 nM of either BLM_peptide or SCM_peptide or BLM (1-212) using 4 μl of 5×ATP binding assay buffer (100 mM Tris-Cl pH 7.5, 50 mM MgCl2, 10 mM MnCl2, 5 mM DTT) and 5 μCi of [γ^32P]dATP. […] Reactions were incubated at 30° C. for 20 minutes and were stopped with 10% TCA and samples were spotted on P81 phosphocellulose paper followed by washing of paper strips with 75 mM orthophosphoric acid. A minimum of 8 washes were given in 20 hrs of 1 hr each including a 12 hr wash. Following this, strips were dehydrated in ethanol for 10 min followed by liquid scintillation counting. Reactions without the substrate were spotted as control and the same process repeated.

[3] = target: T4, RAD54 chromatin remodeling activity; test: REA assay on chromatinized MRP2 array; assay type: biochemical; conditions: 180 nM peptide, +ATP
Source text: (§5) The data was from three independent experiments.
as §5, §4

[4] = disruption of BLM F2 / N-RAD54 F1 interaction, HEK293T cells, 1 nM to 100 μM, read-out: EC50
[5] = HCT116, used to generate resistant cells

- EC50 [1, 4]: 16.7 ± 1.26 nM
Molecule: COc1c2occc2c(OC)c2c(=O)cc(C)oc12 [C9, Khellin]

Molecule: CC(C)CC1C(=O)N2CCC[C@H]2[C@]2(O)O[C@](NC(=O)[C@@H]3C=C4c5cccc6[nH]c(Br)c(c56)C[C@H]4N(C)C3)(C(C)C)C(=O)N12 (stereo partly drawn) [C12, Bromocryptine mesylate]
- EC50 [1]: 41.4 ± 4.46 nM

- EC50 [1, 4]: 6.75 ± 3.69 nM
Molecule: Cc1cnc(C(=O)NCCc2ccc(S(=O)(=O)NC(=O)NC3CCCCC3)cc2)cn1 [C13, Glipizide]

- EC50 [1, 4]: 8.12 ± 3.89 nM
Molecule: CC[C@H]1OC(=O)[C@H](C)[C@@H](O[C@H]2C[C@@](C)(OC)[C@@H](O)[C@H](C)O2)[C@H](C)[C@@H](O[C@@H]2O[C@H](C)C[C@H](N(C)C)[C@H]2O)[C@](C)(O)C[C@@H](C)C(=O)[C@H](C)[C@@H](O)[C@]1(C)O [C15, Erythromycin]

- EC50 [1, 4]: 26.4 ± 2.28 nM
Molecule: Oc1c(Cl)cc(Cl)c2cccnc12 [C16, Chloroxine]

Molecule: CC[C@@]1(O)C(=O)OCc2c1cc1n(c2=O)Cc2cc3ccccc3nc2-1 [CPT, camptothecin]
- EC50 (HCT116 IC60 CPTR cells): 0.354 ± 0.00561 µM
- IC40 concentration (HCT116 WT cells; [5]): 30.8 nM
- IC60 concentration (HCT116 WT cells; [5]): 92.6 nM
- EC50 (HCT116 WT cells; Homo sapiens, HCT-116, CPT gradient alone, MTT, 72 hours, read-out: EC50 (μM), HCT116 WT): 0.043 ± 0.0037 µM
- IC20 (HCT116 WT cells; Homo sapiens, HCT-116, HCT116 wild type, used to generate resistant cells, read-out: IC20 concentration): 12.6 nM

- ATPase activity of RAD54 (RAD54 ATPase activity): increased the ATPase activity of RAD54
- binding of ATP to RAD54 (RAD54): enhanced the binding of ATP to RAD54
Molecule: BLM_peptide: BLM (181-212) peptide, sequence STAQKSKKGKRNFFKAQLYTTNTVKTDLPPPS
- tryptophan fluorescence of RAD54 (His-RAD54 WT): progressively enhanced fluorescence quenching
- chromatin remodeling activity of RAD54, fraction uncut [2]: enhance the chromatin remodeling activity of RAD54, to the same extent as BLM (1-212)
- RAD54 mediated remodeling activity, fraction uncut [3]: enhanced RAD54 mediated remodeling activity on MRP2 substrate
